Consider seven compounds from ChEMBL document CHEMBL4364276, “Discovery of 4-phenyl-2H-benzo[b][1,4]oxazin-3(4H)-one derivatives as potent and orally active PI3K/mTOR dual inhibitors” (Eur J Med Chem, 2019).

One series has as its system MCF7. Briefly: cells. The conditions noted are these: Homo sapiens, MCF7, 72 h.
Another series concerns HCT-116. Briefly: Antiproliferative activity against human HCT116 cells assessed as reduction in cell viability incubated for 72 hrs by MTT assay. It is filed as functional, cell-based. The settings on record: HCT-116, 72 h.
Another series deals with HepG2. Briefly: cells. The settings on record: Homo sapiens, HepG2, 72 h.
For series [1], the system named is HeLa. Briefly: Antiproliferative activity against human HeLa cells assessed as reduction in cell viability incubated for 72 hrs by MTT assay. It is filed as functional, cell-based.
The subject of a further series is A-375. Put plainly: Antiproliferative activity against human A375 cells assessed as reduction in cell viability incubated for 72 hrs by MTT assay. The conditions noted are these: A-375, 72 h. It is filed as functional, cell-based.
Series [2] in a line: Toxicity in BALB/c mouse xenografted with human HeLa cells assessed as reduction in body weight at 20 mg/kg, ig administered for 30 days. The class given is organism-based. The settings on record: in vivo, po, 720 h.
In series [3] the test system is A549. Briefly: cells. The settings on record: Homo sapiens, A549, 72 h.
Series [4] has as its system A549. Briefly: Antitumor activity against human A549 cells xenografted in BALB/c nude mouse assessed as tumor growth inhibition at 20 mg/kg, ig administered for 30 days measured every 3 days during compound dosing relative to control. The class given is functional. The conditions noted are these: A549, po, read-out: TGI.
For series [5], the system named is HeLa. Briefly: Antitumor activity against human HeLa cells xenografted in BALB/c nude mouse assessed as tumor growth inhibition at 20 mg/kg, ig administered for 30 days measured every 3 days during compound dosing relative to control. It is filed as functional. The settings on record: po, read-out: TGI.
A short description of series [6]: Toxicity in BALB/c mouse xenografted with human A549 cells assessed as reduction in body weight at 20 mg/kg, ig administered for 30 days. It is filed as organism-based. The settings on record: in vivo, po, 720 h.
Series [7] addresses PI3-kinase p110-delta/p85-alpha (Homo sapiens, UniProt O00329). Put plainly: Inhibition of recombinant human full length N-terminal GST-tagged PI3Kdelta (1 to 1044 residues)/PIK3R1 (1 to 724 residues) expressed in baculovirus expression system using PIP2 as substrate incubated for 2 hrs by ADP-Glo assay.
In series [8] the target is Phosphatidylinositol 4,5-bisphosphate 3-kinase catalytic subunit alpha isoform (Homo sapiens, UniProt P42336). Briefly: Inhibition of recombinant human full length N-terminal GST-tagged PI3Kalpha (1 to 1068 residues)/PIK3R1 (1 to 724 residues) expressed in baculovirus expression system using PIP2 as substrate incubated for 1 hr by ADP-Glo assay.
The target of series [9] is Serine/threonine-protein kinase mTOR (Homo sapiens, UniProt P42345). Briefly: Inhibition of recombinant human N-terminal FLAG-tagged mTOR (1362 to end residues) using Ulight-4E-BP1 as substrate incubated for 30 mins by fluorescence assay.

A value given as a limit tells only on which side of the number the result lay.

Phosphatidylinositol 4,5-bisphosphate 3-kinase catalytic subunit alpha isoform, sequence (P42336 whole entry, looked up, the tested form may be a part, canonical isoform): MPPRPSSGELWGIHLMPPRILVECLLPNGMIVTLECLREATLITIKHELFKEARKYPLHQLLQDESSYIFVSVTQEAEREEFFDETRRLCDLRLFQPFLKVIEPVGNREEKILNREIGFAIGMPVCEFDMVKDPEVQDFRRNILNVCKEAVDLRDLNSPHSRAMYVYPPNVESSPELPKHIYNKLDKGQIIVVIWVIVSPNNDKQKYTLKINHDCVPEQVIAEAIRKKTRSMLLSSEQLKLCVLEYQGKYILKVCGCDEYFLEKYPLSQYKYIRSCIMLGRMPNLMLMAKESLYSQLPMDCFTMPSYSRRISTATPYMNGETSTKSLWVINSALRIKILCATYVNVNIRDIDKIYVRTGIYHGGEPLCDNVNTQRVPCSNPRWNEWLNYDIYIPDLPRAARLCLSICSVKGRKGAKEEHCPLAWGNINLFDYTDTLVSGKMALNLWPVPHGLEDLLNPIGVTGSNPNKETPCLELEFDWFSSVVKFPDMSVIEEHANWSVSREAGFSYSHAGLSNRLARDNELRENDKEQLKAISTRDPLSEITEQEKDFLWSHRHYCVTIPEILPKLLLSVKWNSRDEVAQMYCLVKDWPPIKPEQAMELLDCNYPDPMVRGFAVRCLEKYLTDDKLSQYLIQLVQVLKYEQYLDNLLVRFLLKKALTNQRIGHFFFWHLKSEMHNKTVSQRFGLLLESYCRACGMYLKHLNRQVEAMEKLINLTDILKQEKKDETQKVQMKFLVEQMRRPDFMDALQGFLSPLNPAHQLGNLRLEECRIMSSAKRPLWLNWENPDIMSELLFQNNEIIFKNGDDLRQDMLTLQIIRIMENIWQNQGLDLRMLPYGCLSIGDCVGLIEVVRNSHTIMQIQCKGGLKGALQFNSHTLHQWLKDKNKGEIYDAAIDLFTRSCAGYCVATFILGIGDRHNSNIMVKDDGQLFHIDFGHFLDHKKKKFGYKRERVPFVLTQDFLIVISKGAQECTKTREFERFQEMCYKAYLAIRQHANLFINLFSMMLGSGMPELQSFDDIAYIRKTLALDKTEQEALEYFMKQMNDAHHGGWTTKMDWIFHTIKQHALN
PI3-kinase p110-delta/p85-alpha, sequence (P27986 whole entry, the tested form may be a part, canonical isoform): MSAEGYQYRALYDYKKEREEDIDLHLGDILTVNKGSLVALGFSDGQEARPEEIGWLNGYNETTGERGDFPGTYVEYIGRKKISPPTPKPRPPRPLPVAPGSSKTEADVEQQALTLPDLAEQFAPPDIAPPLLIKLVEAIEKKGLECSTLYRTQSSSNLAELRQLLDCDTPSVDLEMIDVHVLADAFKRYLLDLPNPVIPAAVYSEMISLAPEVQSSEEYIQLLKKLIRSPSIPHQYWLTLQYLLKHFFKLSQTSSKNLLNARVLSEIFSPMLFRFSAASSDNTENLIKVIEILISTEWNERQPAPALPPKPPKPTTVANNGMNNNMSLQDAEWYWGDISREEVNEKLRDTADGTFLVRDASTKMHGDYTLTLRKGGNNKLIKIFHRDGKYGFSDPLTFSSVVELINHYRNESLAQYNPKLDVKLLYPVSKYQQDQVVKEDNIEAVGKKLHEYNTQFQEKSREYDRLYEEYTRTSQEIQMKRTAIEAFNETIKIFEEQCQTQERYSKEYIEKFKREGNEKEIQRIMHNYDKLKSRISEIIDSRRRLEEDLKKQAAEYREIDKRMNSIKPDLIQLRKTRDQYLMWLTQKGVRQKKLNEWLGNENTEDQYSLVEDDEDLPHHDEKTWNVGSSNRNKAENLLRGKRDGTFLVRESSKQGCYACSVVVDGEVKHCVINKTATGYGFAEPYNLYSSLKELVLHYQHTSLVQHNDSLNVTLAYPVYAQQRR
PI3-kinase p110-delta/p85-alpha, sequence (O00329 whole entry, the tested form may be a part, canonical isoform): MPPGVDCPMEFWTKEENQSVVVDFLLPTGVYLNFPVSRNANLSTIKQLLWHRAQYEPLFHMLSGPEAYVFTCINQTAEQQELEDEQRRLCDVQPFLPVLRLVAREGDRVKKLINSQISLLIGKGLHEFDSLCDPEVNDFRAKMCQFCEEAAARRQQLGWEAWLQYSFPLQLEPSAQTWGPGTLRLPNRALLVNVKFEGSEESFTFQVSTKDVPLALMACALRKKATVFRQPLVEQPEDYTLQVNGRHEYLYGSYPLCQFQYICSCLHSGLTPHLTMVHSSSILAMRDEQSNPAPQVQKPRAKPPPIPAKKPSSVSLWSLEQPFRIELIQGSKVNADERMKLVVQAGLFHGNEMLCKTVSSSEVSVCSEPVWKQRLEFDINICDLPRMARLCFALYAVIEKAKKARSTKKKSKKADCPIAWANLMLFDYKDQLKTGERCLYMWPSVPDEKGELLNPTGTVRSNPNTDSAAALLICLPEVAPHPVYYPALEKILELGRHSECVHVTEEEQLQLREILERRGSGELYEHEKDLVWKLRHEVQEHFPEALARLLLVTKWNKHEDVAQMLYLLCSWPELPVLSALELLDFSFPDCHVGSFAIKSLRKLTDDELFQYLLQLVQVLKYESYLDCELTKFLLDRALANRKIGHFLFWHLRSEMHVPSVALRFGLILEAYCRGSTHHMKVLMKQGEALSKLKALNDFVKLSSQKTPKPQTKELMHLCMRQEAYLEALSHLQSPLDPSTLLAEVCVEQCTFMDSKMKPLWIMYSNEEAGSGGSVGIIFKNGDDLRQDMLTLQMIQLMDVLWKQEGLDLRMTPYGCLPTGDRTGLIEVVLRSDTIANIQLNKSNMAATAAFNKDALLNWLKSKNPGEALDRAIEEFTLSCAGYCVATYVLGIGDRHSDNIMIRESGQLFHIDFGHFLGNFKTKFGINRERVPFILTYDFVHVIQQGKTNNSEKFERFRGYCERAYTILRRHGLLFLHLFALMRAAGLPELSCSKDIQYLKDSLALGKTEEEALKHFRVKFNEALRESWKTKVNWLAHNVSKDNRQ

In the case of `Cn1c(=O)n(-c2ccc(C(C)(C)C#N)cc2)c2c3cc(-c4cnc5ccccc5c4)ccc3ncc21` [DACTOLISIB], the IC50 with MCF7 was determined as 0.45 µM; with HCT-116, 1.7 µM; with HepG2 it was 4.04 µM; in the series on HeLa [1], 1.17 µM; with A-375, 0.58 µM; with A549 [3], 1.08 µM. Besides, the Activity result in series [2] and in [6] was “Toxic” in each case. The inhibition in vivo at 20 mg/kg with A549 [4] is 56.1%; in the series on HeLa [5] it was 66.5%.
`O=C1COc2ccc(-c3ccc(O)cc3)cc2N1`: the IC50 in series [7] was over 1000 nM; in the series on MCF7, over 40 µM; with HCT-116, over 40 µM; in the series on HepG2 it was 38.1 µM; with HeLa [1], over 40 µM; in the series with A-375, over 40 µM. Also, the results for the IC50 (in series [8]; in the series with A549 [3]; in series [9]) were over 1000 nM, over 40 µM and over 1000 nM, respectively.
Consider `O=C1COc2ccc(-c3cnc4ccccc4c3)cc2N1C1CC1`, for which the half-maximal inhibitory concentration (IC50) was over 1000 nM in [7]; 29.5 µM in the series on MCF7; over 40 µM with HCT-116; over 40 µM in the series on HepG2; over 40 µM in the series on HeLa [1]; over 40 µM with A-375. The concentration for half-maximal inhibition (IC50) in series [8] was over 1000 nM; with A549 [3], over 40 µM; in series [9], over 1000 nM.
Consider `Cc1ccc(N2C(=O)COc3ccc(-c4cccc(NS(=O)(=O)c5ccc(F)cc5)c4)cc32)cc1`, for which the IC50 is over 1000 nM in series [7]; 32.1 µM in the series with MCF7; 35.6 µM in the series with HCT-116; over 40 µM with HepG2; over 40 µM in the series on HeLa [1]; 36.2 µM in the series with A-375. Further, the 50% inhibitory concentration (IC50) is over 1000 nM in [8], over 40 µM with A549 [3] and over 1000 nM in [9].
For `O=C1COc2ccc(-c3cnc4ccccc4c3)cc2N1c1ccccc1`, the 50% inhibitory concentration (IC50) was over 1000 nM in series [7]; over 40 µM in the series on MCF7; over 40 µM with HCT-116; over 40 µM in the series on HepG2; over 40 µM with HeLa [1]; over 40 µM in the series on A-375. Besides, the figures for the IC50 (in series [8]; with A549 [3]; in series [9]) were over 1000 nM, over 40 µM and over 1000 nM, respectively.
In the case of `CC(C)N1C(=O)COc2ccc(-c3cccc(NS(=O)(=O)c4ccc(F)cc4)c3)cc21`, the half-maximal inhibitory concentration (IC50) in series [7] is over 1000 nM; in the series on MCF7 it was 26 µM; in the series on HCT-116, 22.6 µM; with HepG2, over 40 µM; with HeLa [1], 22.7 µM; in the series on A-375, over 40 µM. Besides, the IC50 was over 1000 nM in series [8], 29.4 µM in the series with A549 [3] and over 1000 nM in series [9].
On to `COc1cccc(N2C(=O)COc3ccc(-c4cnc(Cl)c(NS(=O)(=O)c5ccc(F)cc5)c4)cc32)c1`, for which the IC50 in series [7] was over 1000 nM; with MCF7, over 40 µM; in the series with HCT-116, over 40 µM; in the series with HepG2, over 40 µM; in the series with HeLa [1], over 40 µM; with A-375 it was over 40 µM. The IC50 in series [8] was over 1000 nM; in the series on A549 [3] it was 32.6 µM; in series [9], over 1000 nM.
